{"source": "patent US20120015901A1", "about": "“METHODS AND PREPARATIONS FOR PROTECTING CRITICALLY ILL PATIENTS” (priority 2009, published 2012)", "key": {"critically ill rabbits": {"system": "critically ill rabbits", "assay": "Toxicity of spermidine, sequential up-down allocation", "type": "in vivo, rabbit", "protocol": "The toxicity of spermidine was assessed using a sequential up-down allocation technique. The administered dose of spermidine was determined by the response of the previous animal to a higher or lower dose (with incremental/decremental steps per 300 mg/d; minimum dose 600 mg/d). When the animal survived until day 4, this was considered as absence of acute toxicity. Mortality during the first 3 days was considered as acute toxicity. When there was no acute toxic effect, the next included animal would receive 300 mg spermidine/day more. When there was an acute toxic effect, the next included animal would receive 300 mg/day less (until the starting dose as a minimum). […] The protocol was otherwise similar as in the experiments described previously."}, "[1]": {"system": "chronologically aging wild type yeast cells", "assay": "Yeast cell death and oxidative stress markers (DHE, Annexin V/PI)", "type": "cell-based", "text": "For chronological aging experiments, cultures were inoculated from fresh overnight cultures to OD600 of 0.1 (˜1·10^6 cells/ml) with culture volume being 10% of flask volume and aliquots were taken out to perform survival plating at indicated time points (Herker, at al. (2004) J. Cell Biol. 164, 501-507. Survival at day 1 of wild type control cultures was set to 100% and other samples calculated accordingly. If not otherwise indicated, representative aging experiments are shown with at least three independent samples (as indicated) aged at the same time, which have been repeated at least twice with similar outcome. In case of experiments with Δspe1 (FIG. 24 A-E), all strains were inoculated to 5·10^4 cells/ml. Upon deletion of both IKI3 and SAS3 we observed slight aggregation of cells possibly due to a defect in late budding events. Therefore, for calculation of survival rates in experiments using Δiki3Δsas3, cell numbers of each sample were determined after two pulse of sonication on ice with Sonifier 250 from Benson (Duty Cycle: 35; Output Control: 2.5). Tests for apoptotic (TUNEL and Annexin V staining) and necrotic (PI staining) markers as well as markers for oxidative stress (DHE staining) were performed as described in Dod et al. (1982) Eur J Biochem 121, 401-405). For quantifications using flow cytometry (BD FACSAria), 30,000 cells were evaluated and analyzed with BD FACSDiva software. Spermidine (S4139, Sigma, Austria) and putrescine (P5780, Sigma, Austria; 1 mM final concentration) were added to stationary cultures at day 1 of the aging experiments (24 h after inoculation). 1 M aqueous stock solution of spermidine was stored in one use aliquots at −20° C. for no longer than 1 month. For adjustment of extracellular pH (pHex) to 6 (±0.5), the required amount of sodium hydroxide was added 30 h after inoculation. […]\nAs a further marker for necrosis, nuclear release of the yeast HMGB1 homolog (Nhp6Ap) was monitored by epifluorescence microscopy of ectopically expressed chimeric fusion protein Nhp6Ap-EGFP. […]"}, "[2]": {"system": "general HAT activity in extracts of mammalian nuclei", "assay": "HAT activity assay, nuclear extract of HeLa-cells", "type": "biochemical", "settings": "extracts of mammalian nuclei (data not shown); spermidine 100 mM", "protocol": "For HAT-activity determination the commercially available HAT Activity Colorimetric Assay KIT from BioVision (Bio Vision K332-100) was employed. HAT assays were performed according to the manufacturer's protocol. In brief, assays were performed with each 15 μg of yeast nuclear extract or nuclear extract of HeLa-cells (Bio Vision K332-100-4), respectively. Spermidine was added at a final concentration of 100 mM 15 minutes after assay initiation. Development of tetrazolium dye was measured by absorption at 440 nm using a GeniosPro plate reader (Tecan). Background readings were done with samples without NADH generating enzyme, giving the nuclear extracts unspecific background activity and eliminate any possible negative effects of spermidine addition on the assay itself. […] Regression coefficients of R^2>0.99 were obtained. Calculated slopes of spermidine treated samples were compared to slopes of untreated samples which were set to a relative activity of 100%."}, "[3]": {"system": "chronologically aged yeast cultures", "assay": "Oxygen consumption and fractionation of upper and lower (quiescent) cells", "type": "cell-based", "protocol": "Oxygen consumption was directly determined in 1.7 ml of chronologically aged yeast cultures transferred to a recording chamber by measuring the decline of oxygen concentration under anaerobic conditions using an oxygen electrode. Slopes were calculated over 15 min within the linear decrease of oxygen (minute 2-17) and normalized to living cells as determined by plating on YEPD agar plates.\nCells were cultured in SCD media as described in section on “Yeast Strains and Molecular Biology”. Percoll density gradient centrifugation was performed according to Allen et al. (Allen et al. (2006) J Cell Biol 174, 89-100). Cell counts for each fraction were determined using a CASY cell counter (Innovatis)."}, "[4]": {"system": "chronologically aging wild type yeast cells", "assay": "Spontaneous mutation frequency and budding index", "type": "cell-based", "settings": "spermidine-treated cultures, 4 mM", "protocol": "Spontaneous mutation frequency was determined based on the appearance of mutants able to form colonies on agar plates containing 60 mg/l L-canavanine sulfate according to Fabrizio et al. (Fabrizio et al. (2004) J Cell Biol 166, 1055-1067). Mutation rates were calculated per 10^6 living (colony forming on YEPD) cells. Budding index was assessed by counting the percentage of budded cells after 10 seconds of sonication on ice using Sonifier 250 from Benson (Duty Cycle: 35; Output Control: 2.5) in micrographs of no more than 40 cells. For each sample, at least 500 cells were evaluated."}, "[5]": {"settings": "spermidine treatment during chronological aging"}}, "data": [{"smiles": "NCCCCNCCCN", "note": "[spermidine]", "values": [{"measurement": "time of death after starting the spermidine infusion", "setting": "critically ill rabbits; continuous infusion of approximately 600 mg/day, both of two animals", "value": 28, "unit": "h"}, {"measurement": "dose without acute toxic effects", "setting": "critically ill rabbits; half of the toxic dose, highest dose of the pilot study", "value": 300, "unit": "mg/day"}, {"measurement": "dose with acute toxic effects", "setting": "critically ill rabbits; mortality during the first 3 days", "value": 600, "unit": "mg/day"}, {"measurement": "dose with acute toxic effects", "setting": "critically ill rabbits; per kg body weight", "value": "approx 200 mg/kg/day"}, {"measurement": "dose without acute toxic effects", "setting": "critically ill rabbits; per kg body weight", "value": "approximately 100 mg/kg/day"}, {"measurement": "loss of membrane integrity (PI positivity and Annexin V+PI+)", "setting": "[1]; after 18 days of aging, 50% without spermidine", "value": "less than 10%"}, {"measurement": "externalization of phosphatidylserine (Annexin V+PI− cells), early apoptotic marker", "setting": "[1]; [5]", "value": "remained largely unaltered"}, {"measurement": "markers of necrosis and oxidative stress (DHE positivity)", "setting": "[1]; [5]", "value": "drastically diminished"}, {"measurement": "general HAT activity", "setting": "[2]", "value": "efficiently inhibited"}, {"measurement": "oxygen consumption", "setting": "[3]; day 20, 4 mM spermidine", "value": "reduced their oxygen consumption"}, {"measurement": "quiescence status (upper and lower cell fractions)", "setting": "[3]; gradient separation, 4 mM spermidine", "value": "resemble the status of quiescence"}, {"measurement": "mutation frequency and budding index", "setting": "[4]", "value": "neither associated with an increased mutation frequency nor a higher budding index"}]}]}
